The record followed here is ChEMBL document CHEMBL5390272, “Discovery of a potent and selective human AC2 inhibitor based on 7-deazapurine analogues of adefovir” (Bioorg Med Chem, 2023).

Series [1] can be described thus: Inhibition of Bordetella pertussis Adenylate cyclase toxin in mouse J774.A1 cells preincubated for 5 hrs followed by ACT addition and measured after 30 mins by CatchPointcAMP immunoassay method. The series is classed as cell-based.
The target in series [2] is T1, Calmodulin-sensitive adenylate cyclase (Bacillus anthracis, UniProt P40136).
T1 sequence (P40136 whole entry): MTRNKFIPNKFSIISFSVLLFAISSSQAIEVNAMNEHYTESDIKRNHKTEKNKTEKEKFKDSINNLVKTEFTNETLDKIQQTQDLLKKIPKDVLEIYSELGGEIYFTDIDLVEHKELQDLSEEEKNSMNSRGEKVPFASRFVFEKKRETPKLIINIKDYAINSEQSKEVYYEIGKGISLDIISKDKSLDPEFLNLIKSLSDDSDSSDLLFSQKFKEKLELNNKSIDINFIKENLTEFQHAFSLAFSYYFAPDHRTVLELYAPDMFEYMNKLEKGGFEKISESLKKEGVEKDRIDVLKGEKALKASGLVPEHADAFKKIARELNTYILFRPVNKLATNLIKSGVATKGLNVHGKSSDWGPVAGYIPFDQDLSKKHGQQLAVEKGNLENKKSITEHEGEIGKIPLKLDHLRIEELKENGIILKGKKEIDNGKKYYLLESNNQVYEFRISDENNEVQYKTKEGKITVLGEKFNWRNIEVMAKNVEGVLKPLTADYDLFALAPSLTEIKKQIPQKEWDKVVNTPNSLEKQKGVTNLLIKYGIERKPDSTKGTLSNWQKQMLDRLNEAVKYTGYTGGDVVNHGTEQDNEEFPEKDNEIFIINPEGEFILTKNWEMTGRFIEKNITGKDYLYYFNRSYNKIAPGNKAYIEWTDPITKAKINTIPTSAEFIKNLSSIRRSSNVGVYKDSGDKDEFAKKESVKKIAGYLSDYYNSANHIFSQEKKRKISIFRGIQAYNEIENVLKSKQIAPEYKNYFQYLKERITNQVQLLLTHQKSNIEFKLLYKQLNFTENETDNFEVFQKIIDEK
Briefly: Inhibition of Bacillus anthracis Edema factor.

Series [3] is described as follows: Cytotoxicity against mouse J774.A1 cells assessed as cell viability at 10 uM incubated for 5 hrs by Cell Titer-Glo Luminescent Cell Viability assay relative to control. The note with it: read-out: Activity. The series is classed as toxicity, cell-based. In general terms: ATP-based viability assays read luminescence as a measure of living cells.
The test system of series [4] is HEK293. Description: Cytotoxicity against AC1 expressed HEK293 cells by CellTiter-Glo 2.0 assay relative to control. Type of series: toxicity, cell-based. Details: concentration or dose not given beside the values. The note with it: human.
Series [5] deals with Adenylate cyclase type 2 (Homo sapiens, UniProt Q08462). Briefly: Inhibition of human adenylate cyclase 2 expressed in ACdelta 3/6 knockout HEK293 cells assessed as cyclic AMP accumulation incubated for 30 min followed by FSK stimulation by HTR-FRET assay. The series is classed as cell-based.
The target of series [6] is D(1A) dopamine receptor (Homo sapiens, UniProt P21728). Briefly: Inhibition of human D1 receptor expressed in HEK293 cells assessed as cyclic AMP accumulation incubated for 1 hr in presence of dopamine by HTR-FRET assay. The series is classed as functional, cell-based.
For series [7], the system named is NHDF. Briefly: Cytotoxicity against human NHDF cells by CellTiter-Glo 2.0 assay. Type of series: toxicity, cell-based.
Series [8] deals with HL-60. Briefly: Cytotoxicity against human HL-60 cells by CellTiter-Glo 2.0 assay. Type of series: functional, cell-based.
Series [9] has as its system HeLa S3. Briefly: Cytotoxicity against human HeLa S3 cells by CellTiter-Glo 2.0 assay. Type of series: functional, cell-based.
Series [10] concerns CCRF-CEM. Briefly: Cytotoxicity against human CCRF-CEM cells by CellTiter-Glo 2.0 assay. The series is classed as functional, cell-based.
Series [11] has as its system HepG2. Briefly: Cytotoxicity against human HepG2 cells by CellTiter-Glo 2.0 assay. The series is classed as functional, cell-based.

Chain of Adenylate cyclase type 2 (Q08462 whole entry): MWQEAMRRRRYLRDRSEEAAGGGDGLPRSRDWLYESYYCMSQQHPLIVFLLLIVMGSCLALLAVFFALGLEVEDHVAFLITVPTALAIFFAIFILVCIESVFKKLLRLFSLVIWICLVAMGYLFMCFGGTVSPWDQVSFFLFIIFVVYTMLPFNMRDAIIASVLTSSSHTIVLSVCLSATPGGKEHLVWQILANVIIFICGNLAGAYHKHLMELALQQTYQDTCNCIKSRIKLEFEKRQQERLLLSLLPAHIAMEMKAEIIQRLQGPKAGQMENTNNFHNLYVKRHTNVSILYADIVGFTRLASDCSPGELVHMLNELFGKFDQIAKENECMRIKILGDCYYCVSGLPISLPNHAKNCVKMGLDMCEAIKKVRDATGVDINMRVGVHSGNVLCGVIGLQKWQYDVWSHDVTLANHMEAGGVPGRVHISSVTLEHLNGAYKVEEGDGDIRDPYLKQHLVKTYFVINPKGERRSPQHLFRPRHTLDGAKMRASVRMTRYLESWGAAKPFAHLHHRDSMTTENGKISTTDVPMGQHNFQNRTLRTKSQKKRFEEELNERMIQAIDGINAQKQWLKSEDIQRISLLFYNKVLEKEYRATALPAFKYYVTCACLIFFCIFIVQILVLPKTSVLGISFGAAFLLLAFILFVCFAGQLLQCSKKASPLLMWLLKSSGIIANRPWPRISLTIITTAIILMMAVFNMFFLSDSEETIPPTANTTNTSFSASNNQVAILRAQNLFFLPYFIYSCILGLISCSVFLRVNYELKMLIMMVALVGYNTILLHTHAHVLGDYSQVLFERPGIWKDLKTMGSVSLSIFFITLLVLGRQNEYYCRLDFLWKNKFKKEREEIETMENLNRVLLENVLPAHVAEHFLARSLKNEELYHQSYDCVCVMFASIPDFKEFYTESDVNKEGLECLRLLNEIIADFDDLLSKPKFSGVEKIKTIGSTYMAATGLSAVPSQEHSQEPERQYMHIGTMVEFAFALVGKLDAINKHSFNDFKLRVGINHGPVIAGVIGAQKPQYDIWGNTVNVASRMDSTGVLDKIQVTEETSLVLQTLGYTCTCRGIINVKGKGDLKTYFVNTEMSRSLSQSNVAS
Chain of D(1A) dopamine receptor (P21728 whole entry): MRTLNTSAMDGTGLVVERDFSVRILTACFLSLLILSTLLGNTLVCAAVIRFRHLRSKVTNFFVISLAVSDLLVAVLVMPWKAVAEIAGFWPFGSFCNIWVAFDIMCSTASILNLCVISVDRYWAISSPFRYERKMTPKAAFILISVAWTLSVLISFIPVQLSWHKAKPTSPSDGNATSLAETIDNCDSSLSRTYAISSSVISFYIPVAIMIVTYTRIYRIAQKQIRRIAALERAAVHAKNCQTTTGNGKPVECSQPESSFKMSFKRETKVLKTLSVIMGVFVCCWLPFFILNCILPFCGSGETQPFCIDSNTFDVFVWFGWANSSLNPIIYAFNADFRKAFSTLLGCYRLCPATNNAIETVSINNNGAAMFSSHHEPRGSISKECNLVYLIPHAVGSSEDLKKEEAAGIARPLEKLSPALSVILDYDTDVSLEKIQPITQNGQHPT

As a reminder, the IC50 is the concentration at which inhibition is half-maximal. For the compound `Cc1cn(CCOCP(=O)(O)OP(=O)(O)OP(=O)(O)O)c2ncnc(N)c12`, the IC50 in [1] turned out to be 0.062 µM; in series [2] it was 0.108 µM.

Regarding `CC(C)OC(=O)[C@H](Cc1ccccc1)NP(=O)(COCCn1cc(-c2cccc(-c3noc(=O)[nH]3)c2)c2c(N)ncnc21)N[C@@H](Cc1ccccc1)C(=O)OC(C)C`, the IC50 in series [1] was more than 10 µM; in series [5], 4.45 µM; in series [6], more than 10 µM; in series [7], more than 10 µM; in series [8], 10 µM; in [9] it was more than 10 µM. In addition, the 50% inhibitory concentration (IC50) in [10] and in [11] was more than 10 µM in each case. For the same compound, the viability at 5 h, 10 µM in series [3] stood at 114%. For the same compound, the Activity in series [4] worked out at 89%.

Consider `CC(C)OC(=O)[C@H](Cc1ccccc1)NP(=O)(COCCn1cc(C#Cc2ccccc2)c2c(N)ncnc21)N[C@@H](Cc1ccccc1)C(=O)OC(C)C`, for which the half-inhibitory concentration (IC50) is more than 10 µM in series [1]; more than 10 µM in [7]; 4.75 µM in [8]; 5.3 µM in series [9]; 4.49 µM in series [10]; 7.24 µM in [11]. Also, the viability at 5 h, 10 µM in series [3] is 116%. In addition, the Activity in [4] is -9%.

With `Nc1ncnc2c1c(-c1ccccn1)cn2CCOCP(=O)(O)OP(=O)(O)OP(=O)(O)O`, the values for the half-inhibitory concentration (IC50) in series [1] and in series [2] were 0.108 µM and 0.0508 µM, respectively.

With `COc1ccc(-c2cn(CCOCP(=O)(O)OP(=O)(O)OP(=O)(O)O)c3ncnc(N)c23)cc1`, the 50% inhibitory concentration (IC50) in series [1] was 0.186 µM; in [2] it was 0.0884 µM.

On to `CCc1cn(CCOCP(=O)(N[C@@H](Cc2ccccc2)C(=O)OC(C)C)N[C@@H](Cc2ccccc2)C(=O)OC(C)C)c2ncnc(N)c12`, for which the IC50 in series [1] is more than 10 µM; in series [7] it was more than 10 µM; in series [8] it was 7.89 µM; in series [9], more than 10 µM; in series [10], more than 10 µM; in series [11] it was more than 10 µM. The viability at 5 h, 10 µM in series [3] was determined as 125%. In [4], the Activity is on record as 90%.

Compound `Nc1ncnc2c1ncn2CCOCP(=O)(O)OP(=O)(O)OP(=O)(O)O` [ADEFOVIR DIPHOSPHATE] registered an IC50 in [2] of 0.0135 µM.
